From patent US9969694B2, “N-(arylalkyl)-N′-pyrazolyl-urea, thiourea, guanidine and cyanoguanidine compounds as TrkA kinase inhibitors” (Array BioPharma Inc., priority 2012, dated 2018)

Legend:
Test in all cases: Off-Target Kinase Profiling
Type in all cases: biochemical
Conditions in all cases: 10 μM; ATP near Km
ALK4 = target: T1, ALK4 (Homo sapiens, UniProt P36896)
T1 construct: purchased Millipore (KinaseProfiler service)
In short: (§1)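 Run as part of a full commercial kinase panel: compound fixed at 10 μM, duplicate wells, ATP concentration near the individual enzyme Km. Output is POC, averaged across both determinations.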

AMPK(A1/B1/G1) = target: T2, AMPK(A1/B1/G1) (Homo sapiens, UniProt Q13131)
T2 construct: purchased Millipore (KinaseProfiler service)
In short: as §1

Axl = target: T3, Axl (Homo sapiens, UniProt P30530)
T3 construct: purchased Millipore (KinaseProfiler service)
In short: as §1

BTK = target: T4, BTK (Homo sapiens, UniProt Q06187)
T4 construct: purchased Millipore (KinaseProfiler service)
In short: as §1

CAMK2g = target: T5, CAMK2g (Homo sapiens, UniProt Q13555)
T5 construct: purchased Millipore (KinaseProfiler service)
In short: as §1

CDK3/cyclinE = target: T6, CDK3/cyclinE (Homo sapiens, UniProt Q00526)
T6 construct: purchased Millipore, Inc. (KinaseProfiler service)
In short: as §1

CK1delta = target: T7, CK1delta (Homo sapiens, UniProt P48730)
T7 construct: purchased Millipore, Inc. (KinaseProfiler service)
In short: as §1

CK2 = target: T8, CK2 (Homo sapiens, UniProt P68400)
T8 construct: purchased Millipore, Inc. (KinaseProfiler service)
In short: as §1

CSK = target: T9, CSK (Homo sapiens, UniProt P41240)
T9 construct: purchased Millipore, Inc. (KinaseProfiler service)
In short: as §1

EphB3 = target: T10, EphB3 (Homo sapiens, UniProt P54753)
T10 construct: purchased Millipore, Inc. (KinaseProfiler service)
In short: as §1

FAK2 = target: T11, FAK2 (Homo sapiens, UniProt Q14289)
T11 construct: purchased Millipore, Inc. (KinaseProfiler service)
In short: as §1

FGFR1 = target: T12, FGFR1 (Homo sapiens, UniProt P11362)
T12 construct: purchased Millipore, Inc. (KinaseProfiler service)
T12 sequence (P11362 22-822): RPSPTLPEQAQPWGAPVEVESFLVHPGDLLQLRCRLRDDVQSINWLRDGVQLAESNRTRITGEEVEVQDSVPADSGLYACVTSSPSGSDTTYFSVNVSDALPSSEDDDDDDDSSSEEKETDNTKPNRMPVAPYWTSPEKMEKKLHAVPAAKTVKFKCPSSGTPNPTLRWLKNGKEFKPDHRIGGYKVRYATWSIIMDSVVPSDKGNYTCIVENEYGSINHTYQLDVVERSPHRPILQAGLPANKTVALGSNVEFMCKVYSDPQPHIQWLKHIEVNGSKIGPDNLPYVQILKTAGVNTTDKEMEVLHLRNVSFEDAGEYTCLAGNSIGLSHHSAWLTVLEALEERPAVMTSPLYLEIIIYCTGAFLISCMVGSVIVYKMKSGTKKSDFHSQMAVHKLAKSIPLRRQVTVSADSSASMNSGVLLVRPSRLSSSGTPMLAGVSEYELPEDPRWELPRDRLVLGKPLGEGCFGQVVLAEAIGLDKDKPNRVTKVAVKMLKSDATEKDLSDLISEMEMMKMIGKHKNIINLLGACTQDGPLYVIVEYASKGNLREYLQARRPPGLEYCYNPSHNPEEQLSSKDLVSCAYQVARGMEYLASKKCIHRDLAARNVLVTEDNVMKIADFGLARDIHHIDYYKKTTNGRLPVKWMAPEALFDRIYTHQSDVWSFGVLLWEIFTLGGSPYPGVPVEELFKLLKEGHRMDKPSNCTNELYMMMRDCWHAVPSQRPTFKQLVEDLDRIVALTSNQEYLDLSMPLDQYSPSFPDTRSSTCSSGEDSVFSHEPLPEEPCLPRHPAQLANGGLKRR
In short: as §1

Flt4 = target: T13, Flt4 (Homo sapiens, UniProt P35916)
T13 construct: purchased Millipore, Inc. (KinaseProfiler service)
In short: as §1

Fms = target: T14, Fms (Homo sapiens, UniProt P07333)
T14 construct: purchased Millipore, Inc. (KinaseProfiler service)
In short: as §1

GRK5 = target: T15, GRK5 (Homo sapiens, UniProt P34947)
T15 construct: purchased Millipore, Inc. (KinaseProfiler service)
In short: as §1

Haspin = target: T16, Haspin (Homo sapiens, UniProt Q8TF76)
T16 construct: purchased Millipore, Inc. (KinaseProfiler service)
In short: as §1

IRR = target: T17, IRR (Homo sapiens, UniProt P14616)
T17 construct: purchased Millipore, Inc. (KinaseProfiler service)
In short: as §1

LIMK1 = target: T18, LIMK1 (Homo sapiens, UniProt P53667)
T18 construct: purchased Millipore, Inc. (KinaseProfiler service)
T18 sequence (P53667 whole entry): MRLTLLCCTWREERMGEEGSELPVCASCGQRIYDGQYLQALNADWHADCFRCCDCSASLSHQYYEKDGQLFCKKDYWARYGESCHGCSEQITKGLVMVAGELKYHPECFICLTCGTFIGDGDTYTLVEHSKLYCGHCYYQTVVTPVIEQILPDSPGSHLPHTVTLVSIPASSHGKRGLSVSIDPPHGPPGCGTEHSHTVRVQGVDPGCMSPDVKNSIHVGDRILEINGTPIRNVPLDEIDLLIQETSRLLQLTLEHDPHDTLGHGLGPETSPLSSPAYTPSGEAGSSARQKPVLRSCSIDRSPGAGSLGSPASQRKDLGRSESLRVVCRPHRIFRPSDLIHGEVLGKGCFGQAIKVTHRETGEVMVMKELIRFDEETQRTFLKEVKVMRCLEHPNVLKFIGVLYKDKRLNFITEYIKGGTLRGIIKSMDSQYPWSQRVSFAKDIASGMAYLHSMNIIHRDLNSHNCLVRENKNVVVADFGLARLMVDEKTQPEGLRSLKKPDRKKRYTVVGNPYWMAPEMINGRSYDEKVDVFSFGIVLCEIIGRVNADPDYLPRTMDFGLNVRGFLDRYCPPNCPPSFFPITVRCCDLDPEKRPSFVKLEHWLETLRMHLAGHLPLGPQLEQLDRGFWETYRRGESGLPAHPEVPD
In short: as §1

LKB1 = target: T19, LKB1 (Homo sapiens, UniProt Q15831)
T19 construct: purchased Millipore, Inc. (KinaseProfiler service)
In short: as §1

Lck = target: T20, Lck (Homo sapiens, UniProt P06239)
T20 construct: purchased Millipore, Inc. (KinaseProfiler service)
In short: as §1

MAP4K2 = target: T21, MAP4K2 (Homo sapiens, UniProt Q12851)
T21 construct: purchased Millipore, Inc. (KinaseProfiler service)
In short: as §1

MAPKAP-K2 = target: T22, MAPKAP-K2 (Homo sapiens, UniProt P49137)
T22 construct: purchased Millipore, Inc. (KinaseProfiler service)
T22 sequence (P49137 whole entry): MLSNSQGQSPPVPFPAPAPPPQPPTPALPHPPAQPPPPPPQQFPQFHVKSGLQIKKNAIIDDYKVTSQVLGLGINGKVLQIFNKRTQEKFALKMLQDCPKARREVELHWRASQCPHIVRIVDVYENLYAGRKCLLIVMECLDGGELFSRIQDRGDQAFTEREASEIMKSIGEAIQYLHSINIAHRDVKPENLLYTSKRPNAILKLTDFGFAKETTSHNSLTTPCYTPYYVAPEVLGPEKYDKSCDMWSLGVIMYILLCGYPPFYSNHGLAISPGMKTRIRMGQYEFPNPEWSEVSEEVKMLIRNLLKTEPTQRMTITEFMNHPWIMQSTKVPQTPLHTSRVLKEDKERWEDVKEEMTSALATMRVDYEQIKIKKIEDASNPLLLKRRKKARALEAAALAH
In short: as §1

MKNK2 = target: T23, MKNK2 (Homo sapiens, UniProt Q9HBH9)
T23 construct: purchased Millipore, Inc. (KinaseProfiler service)
In short: as §1

MYLK = target: T24, MYLK (Homo sapiens, UniProt Q15746)
T24 construct: purchased Millipore, Inc. (KinaseProfiler service)
In short: as §1

NEK3 = target: T25, NEK3 (Homo sapiens, UniProt P51956)
T25 construct: purchased Millipore, Inc. (KinaseProfiler service)
In short: as §1

NLK = target: T26, NLK (Homo sapiens, UniProt Q9UBE8)
T26 construct: purchased Millipore, Inc. (KinaseProfiler service)
In short: as §1

PAK2 = target: T27, PAK2 (Homo sapiens, UniProt Q13177)
T27 construct: purchased Millipore, Inc. (KinaseProfiler service)
In short: as §1

PDK1 = target: T28, PDK1 (Homo sapiens, UniProt O15530)
T28 construct: purchased Millipore, Inc. (KinaseProfiler service)
In short: as §1

PKCbetaI = target: T29, PKCbetaI (Homo sapiens, UniProt P05771)
T29 construct: purchased Millipore, Inc. (KinaseProfiler service)
In short: as §1

PKCeta = target: T30, PKCeta (Homo sapiens, UniProt P24723)
T30 construct: purchased Millipore, Inc. (KinaseProfiler service)
T30 sequence (P24723 whole entry): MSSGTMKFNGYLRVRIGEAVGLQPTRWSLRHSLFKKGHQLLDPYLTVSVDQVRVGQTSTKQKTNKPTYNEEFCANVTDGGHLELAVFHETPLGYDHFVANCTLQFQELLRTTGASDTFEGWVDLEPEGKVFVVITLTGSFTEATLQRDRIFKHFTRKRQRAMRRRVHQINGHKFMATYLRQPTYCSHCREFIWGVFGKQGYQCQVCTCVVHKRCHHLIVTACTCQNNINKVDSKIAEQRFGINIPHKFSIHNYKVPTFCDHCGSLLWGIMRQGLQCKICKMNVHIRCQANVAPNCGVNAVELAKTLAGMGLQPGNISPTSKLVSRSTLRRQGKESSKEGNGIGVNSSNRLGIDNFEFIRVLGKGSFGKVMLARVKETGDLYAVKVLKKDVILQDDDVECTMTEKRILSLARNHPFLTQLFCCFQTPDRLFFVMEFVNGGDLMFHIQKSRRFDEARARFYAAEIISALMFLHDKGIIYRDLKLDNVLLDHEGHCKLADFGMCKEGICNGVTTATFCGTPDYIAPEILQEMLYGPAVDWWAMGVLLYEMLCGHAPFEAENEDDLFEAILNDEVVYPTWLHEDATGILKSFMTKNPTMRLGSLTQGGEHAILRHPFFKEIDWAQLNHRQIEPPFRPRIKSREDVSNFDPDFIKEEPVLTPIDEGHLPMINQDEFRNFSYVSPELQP
In short: as §1

PKCgamma = target: T31, PKCgamma (Homo sapiens, UniProt P05129)
T31 construct: purchased Millipore, Inc. (KinaseProfiler service)
In short: as §1

PKCiota = target: T32, PKCiota (Homo sapiens, UniProt P41743)
T32 construct: purchased Millipore, Inc. (KinaseProfiler service)
In short: as §1

PRK2 = target: T33, PRK2 (Homo sapiens, UniProt Q16513)
T33 construct: purchased Millipore, Inc. (KinaseProfiler service)
T33 sequence (Q16513 whole entry): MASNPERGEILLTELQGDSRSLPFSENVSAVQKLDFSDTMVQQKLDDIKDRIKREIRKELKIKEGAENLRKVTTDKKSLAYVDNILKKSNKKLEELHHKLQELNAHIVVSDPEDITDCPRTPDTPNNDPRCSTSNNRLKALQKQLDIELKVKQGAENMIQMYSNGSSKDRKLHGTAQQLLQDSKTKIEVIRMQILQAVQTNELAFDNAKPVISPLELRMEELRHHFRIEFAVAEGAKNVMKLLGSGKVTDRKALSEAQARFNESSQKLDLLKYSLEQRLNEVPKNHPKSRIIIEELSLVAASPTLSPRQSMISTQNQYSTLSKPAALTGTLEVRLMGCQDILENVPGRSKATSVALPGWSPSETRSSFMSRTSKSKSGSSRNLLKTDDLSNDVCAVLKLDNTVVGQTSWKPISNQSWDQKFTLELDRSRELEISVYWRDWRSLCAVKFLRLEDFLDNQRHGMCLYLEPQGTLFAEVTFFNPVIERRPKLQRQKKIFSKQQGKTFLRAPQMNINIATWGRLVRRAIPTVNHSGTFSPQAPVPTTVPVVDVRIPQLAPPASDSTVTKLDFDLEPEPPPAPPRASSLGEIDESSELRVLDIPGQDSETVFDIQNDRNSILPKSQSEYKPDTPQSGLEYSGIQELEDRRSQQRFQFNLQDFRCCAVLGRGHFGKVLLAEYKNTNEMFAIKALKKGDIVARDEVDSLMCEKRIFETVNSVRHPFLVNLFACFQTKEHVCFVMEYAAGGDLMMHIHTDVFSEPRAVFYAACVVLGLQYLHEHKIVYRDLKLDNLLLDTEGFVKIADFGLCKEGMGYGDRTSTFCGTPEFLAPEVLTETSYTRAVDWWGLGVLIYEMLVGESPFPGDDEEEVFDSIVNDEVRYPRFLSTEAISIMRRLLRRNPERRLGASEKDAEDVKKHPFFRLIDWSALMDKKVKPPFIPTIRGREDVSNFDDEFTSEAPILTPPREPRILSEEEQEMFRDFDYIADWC
In short: as §1

PRKG1alpha = target: T34, PRKG1alpha (Homo sapiens, UniProt Q13976)
T34 construct: purchased Millipore, Inc. (KinaseProfiler service)
In short: as §1

PTK6 = target: T35, PTK6 (Homo sapiens, UniProt Q13882)
T35 construct: purchased Millipore, Inc. (KinaseProfiler service)
In short: as §1

Syk = target: T36, Syk (Homo sapiens, UniProt P43405)
T36 construct: purchased Millipore, Inc. (KinaseProfiler service)
In short: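 Each kinase was run with ATP at roughly its Km. Test compound was added at a fixed 10 μM and assayed twice, and activity was expressed relative to control as POC.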

TAK1 = target: T37, TAK1 (Homo sapiens, UniProt O43318)
T37 construct: purchased Millipore, Inc. (KinaseProfiler service)
T37 sequence (O43318 1-303 limits assumed): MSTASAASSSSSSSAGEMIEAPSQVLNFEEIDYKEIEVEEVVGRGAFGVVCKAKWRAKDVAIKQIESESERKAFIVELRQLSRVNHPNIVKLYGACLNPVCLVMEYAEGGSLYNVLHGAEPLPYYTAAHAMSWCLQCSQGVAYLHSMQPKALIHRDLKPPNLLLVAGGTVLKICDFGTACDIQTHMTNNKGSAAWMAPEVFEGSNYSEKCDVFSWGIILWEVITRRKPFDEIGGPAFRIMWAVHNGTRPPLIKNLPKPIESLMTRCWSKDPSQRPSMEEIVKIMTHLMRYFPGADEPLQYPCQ
In short: as §1

ULK2 = target: T38, ULK2 (Homo sapiens, UniProt Q8IYT8)
T38 construct: purchased Millipore, Inc. (KinaseProfiler service)
In short: as §1

ULK3 = target: T39, ULK3 (Homo sapiens, UniProt Q6PHR2)
T39 construct: purchased Millipore, Inc. (KinaseProfiler service)
In short: as §1

VRK2 = target: T40, VRK2 (Homo sapiens, UniProt Q86Y07)
T40 construct: purchased Millipore, Inc. (KinaseProfiler service)
T40 sequence (Q86Y07 whole entry): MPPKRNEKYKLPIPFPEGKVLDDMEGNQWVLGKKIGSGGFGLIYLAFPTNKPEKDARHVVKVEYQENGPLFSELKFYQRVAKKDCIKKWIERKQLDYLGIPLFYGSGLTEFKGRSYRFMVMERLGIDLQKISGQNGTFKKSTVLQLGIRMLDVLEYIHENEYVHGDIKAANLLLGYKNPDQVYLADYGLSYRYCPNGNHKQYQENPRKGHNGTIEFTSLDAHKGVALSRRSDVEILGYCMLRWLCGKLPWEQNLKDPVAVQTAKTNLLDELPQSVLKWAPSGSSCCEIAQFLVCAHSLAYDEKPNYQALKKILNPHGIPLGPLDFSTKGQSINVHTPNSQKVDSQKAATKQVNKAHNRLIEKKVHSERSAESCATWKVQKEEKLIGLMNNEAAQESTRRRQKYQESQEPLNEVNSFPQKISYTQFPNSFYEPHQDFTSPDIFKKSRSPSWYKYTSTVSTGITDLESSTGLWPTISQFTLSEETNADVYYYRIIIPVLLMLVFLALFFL
In short: as §1

p70S6K = target: T41, p70S6K (Homo sapiens, UniProt P23443)
T41 construct: purchased Millipore, Inc. (KinaseProfiler service)
In short: as §1

COCc1ccc(C(F)(F)F)c(CNC(=O)Nc2c(C)c(-c3cnn(C)c3)nn2-c2ccccc2)c1 [Example 33, 1-(1′,4-dimethyl-1-phenyl-1H,1′H-[3,4′-bipyrazol]-5-yl)-3-(5-(methoxymethyl)-2-(trifluoromethyl)benzyl)urea]
Avg POC ALK4 (ALK4): 106 POC | Avg POC AMPK(A1/B1/G1) (AMPK(A1/B1/G1)): 147.5 POC | Avg POC Axl (Axl): 117 POC | Avg POC BTK (BTK): 125 POC | Avg POC CAMK2g (CAMK2g): 112 POC | Avg POC CDK3/cyclinE (CDK3/cyclinE): 98.5 POC | Avg POC CK1delta (CK1delta): 127.5 POC | Avg POC CK2 (CK2): 94.5 POC | Avg POC CSK (CSK): 127.5 POC | Avg POC EphB3 (EphB3): 69 POC | Avg POC FAK2 (FAK2): 108 POC | Avg POC FGFR1 (FGFR1): 96 POC | Avg POC Flt4 (Flt4): 94 POC | Avg POC Fms (Fms): 88.5 POC | Avg POC GRK5 (GRK5): 82 POC | Avg POC Haspin (Haspin): 109 POC | Avg POC IRR (IRR): 96.5 POC | Avg POC LIMK1 (LIMK1): 91.5 POC | Avg POC LKB1 (LKB1): 90 POC | Avg POC Lck (Lck): 93 POC | Avg POC MAP4K2 (MAP4K2): 115.5 POC | Avg POC MAPKAP-K2 (MAPKAP-K2): 146 POC | Avg POC MKNK2 (MKNK2): 101.5 POC | Avg POC MYLK (MYLK): 100.5 POC | Avg POC NEK3 (NEK3): 115.5 POC | Avg POC NLK (NLK): 121 POC | Avg POC PAK2 (PAK2): 89.5 POC | Avg POC PDK1 (PDK1): 126.5 POC | Avg POC PKCbetaI (PKCbetaI): 111.5 POC | Avg POC PKCeta (PKCeta): 98 POC | Avg POC PKCgamma (PKCgamma): 98 POC | Avg POC PKCiota (PKCiota): 64 POC | Avg POC PRK2 (PRK2): 106 POC | Avg POC PRKG1alpha (PRKG1alpha): 122.5 POC | Avg POC PTK6 (PTK6): 118.5 POC | Avg POC Syk (Syk): 123.5 POC | Avg POC TAK1 (TAK1): 88.5 POC | Avg POC ULK2 (ULK2): 98.5 POC | Avg POC ULK3 (ULK3): 99.5 POC | Avg POC VRK2 (VRK2): 90.5 POC | Avg POC p70S6K (p70S6K): 377 POC
